Laboratory results: paper PMC10285260, “Processive kinetics in the three-step lanosterol 14α-demethylation reaction catalyzed by human cytochrome P450 51A1” (The Journal of Biological Chemistry, 2023)
Where “and” joins values, the source holds several entries; their conditions need not be identical. Equal entries are not always repeated. Where two headings read alike, the source gives them in different places.

Experiments:
[1] = biological target: T1, human P450 51A1 (Homo sapiens, UniProt Q16850); assay: Stopped-flow koff measurements of P450 51A1-sterol complexes with ketoconazole trap; assay type: binding; parameters: made in house; host or cells: Escherichia coli; conditions: 23 °C, 10 μM ketoconazole trap, 1 μM P450 51A1
T1 sequence (Q16850 1-509): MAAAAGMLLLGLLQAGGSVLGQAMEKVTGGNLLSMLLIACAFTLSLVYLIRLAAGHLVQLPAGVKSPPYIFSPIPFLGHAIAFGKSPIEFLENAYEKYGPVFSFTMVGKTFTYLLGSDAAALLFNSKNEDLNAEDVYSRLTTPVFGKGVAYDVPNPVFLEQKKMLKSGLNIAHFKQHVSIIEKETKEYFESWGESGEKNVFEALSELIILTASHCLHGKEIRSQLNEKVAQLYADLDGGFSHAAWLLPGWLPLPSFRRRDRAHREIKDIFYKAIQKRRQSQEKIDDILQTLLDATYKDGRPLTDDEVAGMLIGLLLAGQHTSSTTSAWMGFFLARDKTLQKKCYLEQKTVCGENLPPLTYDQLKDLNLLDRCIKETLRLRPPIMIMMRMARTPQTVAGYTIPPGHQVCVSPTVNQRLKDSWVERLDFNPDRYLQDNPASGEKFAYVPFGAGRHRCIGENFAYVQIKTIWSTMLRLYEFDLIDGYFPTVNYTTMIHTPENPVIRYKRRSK
Description: All assays were done at 23 °C in an OLIS-RSM 1000 stopped-flow spectrophotometer, collecting data every 1 ms over a range of 332 to 565 nm with slit widths of 1.24 mm (8 nm bandpass) and gratings with 400 lines/mm and 500 nm blaze. One syringe contained 20 μM ketoconazole dissolved in 100 mM potassium phosphate buffer (pH 7.4). In a preliminary experiment in which this was mixed with an equal volume of 2 μM P450 51A1 (same buffer), the observed rate of binding (ΔA430) was 25 s^−1.
P450 51A1 (2 μM) was premixed with an equivalent concentration of each of the sterols (in HPCD). Each of these solutions was placed in a drive syringe and rapidly mixed with 20 μM ketoconazole (yielding final concentrations of 1 μM P450 51A1 and 10 μM ketoconazole). The rate of the ΔA430-A390 change was used as the koff rate, that is, the rate at which the sterol left the P450 and allowed it to bind to the trap ligand ketoconazole.

[2] = test system: human P450 51A1; assay: Kinetic modeling (KinTek Explorer) of the single-turnover time course; conditions: for k^+ of sterol binding to P450 51A1 (kon) used for fitting: all kon set at this value; for k^- of oxidation step of the P450-sterol complex: irreversible, set to zero; for k^- of sterol binding to P450 51A1 (koff) used for fitting / k^+ of oxidation step of the P450-sterol complex: optimized model; for k^+ of oxidation step of the P450-sterol complex: label = sterol oxidized in the step
Source text: The initial koff rate constants used in fitting were the koff rates measured in the stopped-flow trap experiments (Fig. 9). All three oxidation reactions are irreversible, and thus k-2, k-4, and k-6 were set to zero.
Data were imported into KinTek Explorer software (v. 11.01, KinTek, https://kintekcorp.com/software) ([63], [64]) as txt files and processed using an Apple computer (operating system 11.6.2).

[3] = biological target: T1, human P450 51A1; assay: Spectral (difference spectroscopy) Kd estimates of P450 51A1-sterol complexes; assay type: binding; parameters: made in house; host or cells: Escherichia coli
Description: Kd values were estimated by difference spectroscopy. P450 51A1 (1.0 μM) was in each of two glass cuvettes (in 100 mM potassium phosphate buffer, pH 7.4) and a baseline was recorded (OLIS-Amino DW2a). Aliquots of a solution of each sterol–HPCD complex were added to the sample cuvette and an equivalent amount of HPCD was added to the reference cuvette, and spectra were recorded. The time between the collection of individual spectra was ∼3 min. The maximum absorbance difference (usually ΔA390-A418) was plotted versus the nominal concentration of added sterol, and the data were fit to hyperbolae in GraphPad Prism software (GraphPad, https://www.graphpad.com), using a quadratic equation to correct the ligand concentration for the enzyme-bound concentration (used as Y=B+(A/2)∗(1/E)∗((Kd+E+X)-sqrt((Kd + E+X)^∧2-(4∗E∗X)) in Prism software). The linear regression fits include the internal error estimates (SE).

[4] = test system: rat liver microsomal systems; parameters: method as in PMID 3514778; conditions: rat liver microsomes fortified with cyanide, 2 h; cited from earlier work
[5] = Estimation of Kd for HPCD-dihydrolanosterol complex (OD450 light scattering); assay type: physicochemical; conditions: pH 7.4, 2% C2H5OH, 23 °C, 16 h; two assays
[6] = 1.0 μM P450 51A1, quadratic fit
[7] = 1.0 μM P450 51A1, quadratic fit, read-out: Kd

Compound	koff [1]	k^+ of sterol binding to P450 51A1 (kon) used for fitting [2]	k^- of oxidation step of the P450-sterol complex [2]	k^- of sterol binding to P450 51A1 (koff) used for fitting [2]	k^+ of oxidation step of the P450-sterol complex [2]	Kd [3, 6]	Kd [3, 7]	accumulation, yield [4]	Kd [5]	Kd [3]
CC(C)CCCC(C)[C@H]1CC[C@@]2(CO)C3=C(CC[C@]12C)[C@@]1(C)CC[C@H](O)C(C)(C)C1CC3 (stereo partly drawn) [14α-CH2OH dihydrolanosterol, 24,25-dihydro-14α-CH2OH lanosterol]	0.022 ± 0.001 s⁻¹	2e+06 M⁻¹ s⁻¹	0	0.040 s⁻¹	3.5 s⁻¹	sub-μM	0.02 ± 0.04 µM	~3%		
CC(C)CCCC(C)[C@H]1CC[C@@]2(C=O)C3=C(CC[C@]12C)[C@@]1(C)CC[C@H](O)C(C)(C)C1CC3 (stereo partly drawn) [14α-CHO dihydrolanosterol, 24,25-dihydro-14α-formyl lanosterol]	0.059 ± 0.001 s⁻¹	2e+06 M⁻¹ s⁻¹	0		2.5 s⁻¹	sub-μM	0.12 ± 0.03 µM	~3%		
CC(C)CCCC(C)[C@H]1CC[C@@]2(C)C3=C(CC[C@]12C)[C@@]1(C)CC[C@H](O)C(C)(C)C1CC3 (some centres unmarked) [dihydrolanosterol, 24,25-dihydrolanosterol]	0.054 ± 0.01 s⁻¹	2e+06 M⁻¹ s⁻¹	0	0.075 s⁻¹	7.5 s⁻¹	sub-μM			6400 µM and 6800 µM	0.23 ± 0.1 µM
